Test results: the supplement of paper PMC10307832

What was measured:
Experiment in all cases: relative viability (nuclei count vs DMSO), 5 days (fraction); higher = more cells survive
[1] = compound: CC1=CC(=NN1)NC2=CC(=NC(=N2)/C=C/C3=CC=CC=C3)N4CCN(CC4)C + CS(=O)(=O)N1CCN(Cc2cc3nc(-c4cccc5[nH]ncc45)nc(N4CCOCC4)c3s2)CC1 [Pictilisib] (partner 1 µM)
How it was run: (§1)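 Five library-drug doses in √10 steps were combined with a fixed anchor-drug dose, or a single drug was given alone, by pin tool to lung cancer cell lines in 1536-well plates the day after seeding. Nuclei were stained and counted after 5 days. Relative viability is the nuclei count in treated wells over that in vehicle wells, taken as the median of duplicate plates.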

[2] = compound: COC1=CC(c2cc3ccccc3[nH]2)=N/C1=C\c1[nH]c(C)cc1C [Obatoclax] + C[C@]1(O)C[C@@H](c2nc(-c3ccc4ccc(-c5ccccc5)nc4c3)c3c(N)nccn32)C1 [Linsitinib] (partner 1 µM)
How it was run: as §1

[3] = compound: COC1=CC(c2cc3ccccc3[nH]2)=N/C1=C\c1[nH]c(C)cc1C [Obatoclax] + CC(=O)c1c(C)c2cnc(Nc3ccc(N4CCNCC4)cn3)nc2n(C2CCCC2)c1=O [Palbociclib] (partner 0.5 µM)
How it was run: as §1

[4] = compound: CC(C)C[C@H](NC(=O)[C@H](Cc1ccccc1)NC(=O)c1cnccn1)B(O)O [Bortezomib] + CC(=O)Nc1cccc(-n2c(=O)n(C3CC3)c(=O)c3c(Nc4ccc(I)cc4F)n(C)c(=O)c(C)c32)c1 [Trametinib] (partner 0.02 µM)
How it was run: as §1

Cell Line	relative viability ([1]; first compound 0.08 µM)	relative viability ([1]; first compound 0.253 µM)	relative viability ([1]; first compound 0.8 µM)	relative viability ([1]; first compound 2.53 µM)	relative viability ([1]; first compound 8 µM)	relative viability ([2]; first compound 0.01 µM)	relative viability ([2]; first compound 0.03162 µM)	relative viability ([2]; first compound 0.1 µM)	relative viability ([2]; first compound 0.3162 µM)	relative viability ([2]; first compound 1 µM)	relative viability ([3]; first compound 0.01 µM)	relative viability ([3]; first compound 0.03162 µM)	relative viability ([3]; first compound 0.1 µM)	relative viability ([3]; first compound 0.3162 µM)	relative viability ([3]; first compound 1 µM)	relative viability ([4]; first compound 0.0002 µM)	relative viability ([4]; first compound 0.000632 µM)	relative viability ([4]; first compound 0.002 µM)	relative viability ([4]; first compound 0.006325 µM)	relative viability ([4]; first compound 0.02 µM)
201T	0.668	0.683	0.67	0.643	0.607	1.04	1.01	1.02	1.06	1.03	0.382	0.363	0.348	0.348	0.357	0.732	0.72	0.685	0.625	0.262
A549	0.464	0.592	0.332	0.0385	0.0281	0.601	0.55	0.621	0.635	0.626										
A-427	0.836	0.247	0.741	0.401	0.11	1.07	0.775	1.11	1.15	1.13	0.54	0.511	0.419	0.517	0.462	0.657	0.842	0.696	0.216	0.161
ABC-1	0.764	0.76	0.792	0.284	0.173	0.619	0.768	0.815	0.928	0.372	0.838	0.717	0.595	0.609	0.454					
BEN	0.622	0.578	0.598	0.411	0.193	0.948	0.828	0.913	0.948	0.796	0.467	0.477	0.429	0.462	0.44	0.856	0.953	0.87	0.829	0.29
CAL-12T	0.335	0.426	0.48	0.187	0.147	0.646	0.773	0.919	0.809	0.526	0.445	0.495	0.426	0.176	0.0895	0.378	0.335	0.327	0.156	0.133
COR-L23	0.73	0.929	0.765	0.177	0.0607	0.848	1	0.767	0.29	0.173	0.306	0.303	0.228	0.128	0.122	0.478	0.586	0.704	0.0593	0.06
COR-L 105	0.461	0.429	0.353	0.205	0.223	0.989	0.964	0.998	1.06	0.401	0.408	0.441	0.375	0.361	0.341	0.449	0.42	0.414	0.375	0.376
Calu-6	0.876	0.807	0.648	0.131	0.103	0.95	0.898	0.946	0.852	0.652										
ChaGo-K-1	0.605	0.912	1	0.292	0.271						0.912	0.925	0.91	0.903	0.99	0.882	0.89	0.85	0.279	0.144
EBC-1	0.394	0.451	0.392	0.143	0.0897	0.771	0.879	0.922	0.87	0.65										
EKVX	0.438	0.478	0.488	0.31	0.115	0.978	0.923	1.07	0.907	0.876	0.438		0.393	0.388	0.386	0.345	0.38	0.208	0.174	0.0845
EMC-BAC-2	0.507	0.589	0.468	0.325	0.154	0.796	0.817	0.827	0.797	0.875	0.502	0.494	0.474	0.556	0.432	1.02	1.01	0.803	0.341	0.307
EPLC-272H	0.286	0.286	0.31	0.0769	0.152	1.13	1.22	1.15	1.03	1.2	0.323	0.313	0.477	0.266	0.282	0.324	0.279	0.233	0.073	0.0585
H3255	0.507	0.534	0.497	0.396	0.205	0.893	0.976	0.985	0.884	0.892	0.308	0.299	0.278	0.327	0.324	0.593	0.69	0.331	0.239	0.274
HARA	0.396	0.37	0.348	0.204	0.0756	0.923	0.316	1.03	0.703	0.919	0.314	0.224	0.285	0.242	0.216	0.642	0.592	0.896	0.0979	0.189
HCC-15	0.739	0.548	0.667	0.299	0.104	0.879	0.708	0.845	0.736	0.606	0.672	0.728	0.695	0.752	0.609	0.39	0.394	0.426	0.117	0.104
HCC-44	0.606	0.627	0.447	0.34	0.245	0.688	0.628	0.688	0.555	0.63	0.922	0.916	0.967	0.993	0.94	1.1	1.04	0.984	0.92	0.277
HCC-78	0.219	0.216	0.214	0.202	0.108	0.448	0.52		0.283	0.304	0.438	0.45	0.506	0.479	0.457	0.799	0.699	0.312	0.196	0.233

Cell Line	relative viability ([1]; first compound 0.08 µM)	relative viability ([1]; first compound 0.253 µM)	relative viability ([1]; first compound 0.8 µM)	relative viability ([1]; first compound 2.53 µM)	relative viability ([1]; first compound 8 µM)	relative viability ([2]; first compound 0.01 µM)	relative viability ([2]; first compound 0.03162 µM)	relative viability ([2]; first compound 0.1 µM)	relative viability ([2]; first compound 0.3162 µM)	relative viability ([2]; first compound 1 µM)	relative viability ([3]; first compound 0.01 µM)	relative viability ([3]; first compound 0.03162 µM)	relative viability ([3]; first compound 0.1 µM)	relative viability ([3]; first compound 0.3162 µM)	relative viability ([3]; first compound 1 µM)	relative viability ([4]; first compound 0.0002 µM)	relative viability ([4]; first compound 0.000632 µM)	relative viability ([4]; first compound 0.002 µM)	relative viability ([4]; first compound 0.006325 µM)	relative viability ([4]; first compound 0.02 µM)
HCC-366	0.148	0.156	0.136	0.112	0.0428	0.597	0.675	0.64	0.454	0.427	0.401	0.34	0.311	0.304	0.203	0.333	0.371	0.433	0.181	0.0229
HCC-827	0.961	1.02	1.07	0.747	0.8	0.904	1.01	0.895	0.866	0.914	0.475	0.436	0.531	0.407	0.482	0.515	0.555	0.417	0.218	0.141
HOP-62	0.558	0.458	0.919	0.429	0.0856	0.784	1.07	0.94	1.13	0.933	0.425	0.393	0.415	0.499	0.455	0.37	0.401	0.378	0.173	0.0647
IA-LM	0.319	0.505	0.378	0.173	0.0595	0.457	0.505	0.5	0.465	0.0667										
LC-2-ad	0.46	0.356	0.247	0.0963	0.0784	0.829	0.828	0.906	0.688	0.434	0.428	0.46	0.489	0.464	0.438	0.903	0.89	0.995	0.597	0.201
LCLC-97TM1	0.171	0.102	0.161	0.105	0.0788	0.166	0.224	0.182	0.163	0.179	0.193	0.223	0.204	0.199	0.25	0.173	0.205	0.162	0.0973	0.063
LCLC-103H	0.623	0.676	0.58	0.5	0.347	0.953	1.02	1.13	1	1.23	0.432	0.356	0.472	0.517	0.446	0.661	0.687	0.589	0.336	0.256
LK-2	0.464	0.694	0.54	0.279	0.186	0.524	0.383	0.826	0.521	0.662	0.661	0.728	0.764		0.825	0.68	0.597	0.332	0.156	0.196
LOU-NH91	0.461	0.544	0.513	0.454	0.314	0.949	0.865	0.792	0.833	0.761	0.497	0.523	0.429	0.422	0.464	0.772	0.793	0.402	0.344	0.359
NCI-H522											1.05	1.04	1.03	1.02	0.892	0.753	0.821	0.796	0.387	0.331
NCI-H596	0.406	0.417	0.388	0.253	0.271	1.07	0.945	0.809	0.66	0.731						0.835	0.773	0.568	0.208	0.168
NCI-H1299	0.725	0.853	0.596	0.107	0.0675	0.975	0.837	0.925	0.948	0.72										
NCI-H1563	0.624	0.655	0.584	0.582	0.355	1.14	1.15	1.18	1.26	0.943										
NCI-H1648											0.303	0.258	0.28	0.275	0.246	0.465	0.594	0.371	0.263	0.389
NCI-H1650	0.519	0.526	0.549	0.113	0.0653						0.344	0.407	0.316	0.24	0.145	0.627	0.572	0.128	0.132	0.129
NCI-H1703		0.24	0.179	0.182	0.131	0.613	0.539	0.407	0.917	0.589										
NCI-H2170	0.283	0.301	0.257	0.166	0.136						0.372	0.4	0.393	0.368	0.43	0.892	0.921	0.972	0.229	0.142
NCI-H2342											0.506	0.524	0.582	0.501	0.487	0.869	0.965	0.815	0.924	0.386
SW 900											0.619	0.543	0.605	0.475	0.363	0.587	0.578	0.167	0.155	0.145
